Measured values from patent publication US6913925B1, “Human mesencephalon cell lines and methods of use therefor” (Signal Pharmaceuticals LLC, priority 1998, dated 2005).

B1: GDNF: glial cell-derived neurotrophic factor (protein, UniProt P39905 78-211, looked up)
Glial cell line-derived …: SPDKQMAVLPRRERNRQAAAANPENSRGKGRRGQRGKNRGCVLTAIHLNVTDLGLGYETKEELIFRYCSGSCDAAETTYDKILKNLSRNRRLVSDKVGQACCRPIAFDDDLSFLDDNLVYHILRKHSAKRCGCI
B2: CNTF: ciliary neurotrophic factor (protein, UniProt P26441 1-200, looked up)
Ciliary neurotrophic factor: MAFTEHSPLTPHRRDLCSRSIWLARKIRSDLTALTESYVKHQGLNKNINLDSADGMPVASTDQWSELTEAERLQENLQAYRTFHVLLARLLEDQQVHFTPTEGDFHQAIHTLLLQVAAFAYQIEELMILLEYKIPRNEADGMPINVGDGGLFEKKLWGLKVLQELSQWTVRSIHDLRFISSHQTGIPARGSHYIANNKKM

System: immortalized human mesencephalon cells
Assay: Differentiation of conditionally-immortalized human mesencephalon cell lines into neurons
Type: cell-based
Details: added together: forskolin 10 μM, GDNF 20 ng/mL, CNTF 20 ng/mL, IGF-I 100 ng/mL, BDNF 20 ng/mL
From the text: Conditionally-immortalized human mesencephalon neural precursor cell lines (which may, but need not, be clonal) may generally be induced to differentiate into neurons by inhibiting the expression of the growth-promoting gene (i.e., suppressing the production and/or activity of the growth-promoting protein). For example, if the gene encoding the growth-promoting protein is under the control of an externally-regulatable promoter, the conditions (e.g. temperature or composition of medium) may be modified to suppress transcription of the growth-promoting gene. For the tetracycline-controlled gene expression system discussed above, differentiation may be achieved by the addition of tetracycline to suppress transcription of the growth-promoting gene. In general, 1-5 μg/mL tetracycline for 48 hours is sufficient to begin neuronal morphological differentiation, and the number of differentiated neurons increases during subsequent days. Such differentiation may be performed, for example, by plating the cells on a suitable substrate (e.g., one or a combination of polyamino acid, fibronectin, laminin or tissue culture plastic) in a medium consisting of DMEM/F-12 with N2 supplement and tetracycline (1-5 μg/mL). […] Culture medium may then be refreshed (e.g., every 2-4 days).
An increase in TH expression was also observed for some cell lines, indicating the presence of dopaminergic neurons.
One clone (MESII(1)-C2) was differentiated in DMEM/F-12 with N2 supplement, tetracycline (1 μg/mL), forskolin (10 μM), GDNF (20 ng/mL) and BDNF (20 ng/mL). Following differentiation, a high number of MAP2ab and TH immunoreactive cells were observed. For such immunocytochemistry, cells were fixed with 4% paraformaldehyde, and were incubated with primary antibody in blocking buffer for 2 hours at room temperature, rinsed, and then incubated with a fluorescein (FITC)- or Texas red-conjugated species-specific secondary antibody (Jackson lmmunoresearch Laboratories, Inc., West Grove, Pa.) in blocking buffer for another hour at room temperature. Cultures were then rinsed three times with PBS and coverslipped with PVA/DABCO before scoring and photographing representative fields.

Row | Molecule | enhancement of differentiation by addition to DMEM/F-12 with N2 supplement and tetracycline
1 | IGF-I: insulin-like growth factor | differentiation is enhanced
2 | BDNF: brain-derived neurotrophic factor | differentiation is enhanced
3 | B1 | differentiation is enhanced
4 | B2 | differentiation is enhanced
